Earlier results, collected in US6281194A, “Cycloalkyl inhibitors of protein farnesyltransferase” (Warner-Lambert Company, priority 1999, dated 2001).

Experiments:
[1] = test system: EJ-1 human bladder carcinoma, HT1080 human fibrosarcoma and human colon carcinoma xenografts; details: 100 mg/kg, nude mice; cited from earlier work
[2] = test system: human lung carcinoma with K-ras mutation and p53 deletion; details: nude mice; cited from earlier work
[3] = test system: mammary and salivary carcinomas; details: daily administration; cited from earlier work

COC(=O)[C@H](CCSC)NC(=O)[C@H](/C=C\[C@@H](/C=C/[C@@H](N)CS)C(C)C)Cc1ccccc1 [Example B1086]
tumor growth (in words) [1]: inhibit tumor growth

CSCC[C@H](NC(=O)c1ccc(NC[C@@H](N)CS)cc1-c1ccccc1)C(=O)O [FTI276]
tumor growth (in words) [2]: selectively block tumor growth

CC[C@H](C)[C@@H](CO[C@@H](Cc1ccccc1)C(=O)N[C@@H](CCS(C)(=O)=O)C(=O)OC(C)C)NC[C@@H](N)CS [L-744,832]
tumor regression (in words) [3]: caused tumor regression
